Tests used:
[1] = Toxicity (LD50) when tested in mice; details: mouse, in vivo
Text: Another advantage of the compounds of this invention are their low toxicity.

[2] = Stability of the compound, solid or in water (NMR and TLC analysis); type: physicochemical

| degradation at 0° after one month ([2]; 0°, one month, NMR and TLC analysis) | hydrolysis in water after one month ([2]; 15 mg/mL in water, room temperature, one month) | stability in water ([2]; 15 mg/mL in water, room temperature, one week, TLC analysis) | acyl-migration products ([2]; aqueous solution, 60°) | α-anomers remaining after 36 hours ([2]; aqueous solution, 60°, 36 hours, α-anomers) | β-anomers remaining after 36 hours ([2]; aqueous solution, 60°, 36 hours, β-anomers) | hydrolysis of aqueous solution at 60° ([2]; aqueous solution, 60°, formation of D-glucose, NMR and TLC analysis) | time after which slow degradation of the solid was noted ([2]; solid compound, 60°, D-glucose and unidentified decomposition products (TLC)) | Compound | LD50 [1] | stability at 0° ([2]; 0°, substantially long periods of time) | relative hydrolysis of β- and α-anomers ([2]; aqueous solution, 60°) |
| --- | --- | --- | --- | --- | --- | --- | --- | --- | --- | --- | --- |
|  |  |  |  |  |  |  |  | CCC(C(=O)OC1O[C@H](CO)[C@@H](O)[C@H](O)[C@H]1O)C(=O)OC1O[C@H](CO)[C@@H](O)[C@H](O)[C@H]1O (stereo partly drawn) [Example 4, Di-(1,1'-D-glucopyranosyl)ethylmalonates] | 9700 mg/kg |  |  |
| no noticeable degradation | Partial hydrolysis into D-glucose | stable in water | No acyl-migration products were detected | some α-anomers were still present | completely disappeared | some hydrolysis after about two hours | 3 h | CCCCC(C(=O)OC1O[C@H](CO)[C@@H](O)[C@H](O)[C@H]1O)C(=O)OC1O[C@H](CO)[C@@H](O)[C@H](O)[C@H]1O (stereo partly drawn) [Example 2, Di-(1,1'-D-glucopyranosyl)n-butylmalonates] |  | stable at 0° for substantially long periods of time | hydrolysis of the β-anomers appeared faster than that of the α-anomers |
